# In paper PMC5063977 (The Journal of Biological Chemistry, 2016):
# Assays:
# Type in all cases: cell-based
# [1] = biological target: T1, RAMP1-CLR (CGRP receptor) (Homo sapiens, UniProt O60894+Q16602); assay: (Ca^2+)i mobilization, HEK-293 cells, RAMP1 + CLR; conditions: HEK293, percentage of maximal (Ca^2+)i release with 10 μM ionomycin, mean ± S.E., n = 5
# T1 construct: FLAG; expressed in transfected cells; host or cells: HEK-293 or HEK-293S cells, transient transfection, 1:1 RAMP:CLR
# Experimental: (§1) HEK-293 cells were transfected with FuGENE 6 (Roche Applied Science) in accordance with the manufacturer's instructions using a 1:3 (w:v) DNA:FuGENE ratio and a 1:1 ratio of RAMP to CLR. […] The transfected cell lines were grown for 24–48 h prior to assaying.
# (§2) Transfected HEK-293 cells were grown to confluence in black, clear bottomed, 96-well plates. […] Cells were then washed followed by the addition of 100 μl of Ca^2+-free Hanks' balanced salt solution. […] Recordings were obtained every 0.5 s for 120 s. Peak magnitude was calculated using five-point smoothing followed by correction against background fluorescence. The peak was used to generate concentration-response curves and normalized relative to 10 μM ionomycin.
# (§3) Data analysis for cAMP assays was performed in GraphPad Prism 6.0f (San Diego, CA). […] These values were then used to quantify signaling bias as change in log (τ/Ka) relative to the natural cognate ligand for the respective receptor ([41]). […] Statistical differences were analyzed using one-way ANOVA or Student's t test as appropriate with post hoc Bonferroni's or Dunnett's multiple comparisons, and p < 0.05 was considered significant. […] To quantitate the ligand-dependent response in the yeast system, a strain lacking GPA1 (MMY11), grown in rich medium, was used as a standard ([72]). […]
# [2] = biological target: T2, RAMP3-CLR (AM2 receptor) (Homo sapiens, UniProt O60896+Q16602); assay: S. cerevisiae growth assay, GPA1/Gαq chimera, RAMP3 + CLR; conditions: percentage of yeast strain MMY11 (lacking GPA1); 24-h; mean ± S.E., n = 6
# T2 construct: FLAG; expressed in transfected cells; host or cells: HEK-293 or HEK-293S cells, transient transfection, 1:1 RAMP:CLR
# T2 sequence (Q16602 23-461): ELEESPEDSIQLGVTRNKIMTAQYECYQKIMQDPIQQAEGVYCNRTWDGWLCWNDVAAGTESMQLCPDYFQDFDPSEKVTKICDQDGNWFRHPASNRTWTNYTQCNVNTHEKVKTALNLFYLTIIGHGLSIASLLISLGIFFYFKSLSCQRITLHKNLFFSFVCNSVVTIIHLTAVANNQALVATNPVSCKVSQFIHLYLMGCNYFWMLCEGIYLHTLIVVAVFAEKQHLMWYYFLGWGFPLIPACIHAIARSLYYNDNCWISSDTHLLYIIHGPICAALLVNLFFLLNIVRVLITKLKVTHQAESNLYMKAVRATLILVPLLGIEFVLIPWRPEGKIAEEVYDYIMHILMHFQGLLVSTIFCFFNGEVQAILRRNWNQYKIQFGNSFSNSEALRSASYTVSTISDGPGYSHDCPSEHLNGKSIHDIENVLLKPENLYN
# T2 sequence (O60896 24-148): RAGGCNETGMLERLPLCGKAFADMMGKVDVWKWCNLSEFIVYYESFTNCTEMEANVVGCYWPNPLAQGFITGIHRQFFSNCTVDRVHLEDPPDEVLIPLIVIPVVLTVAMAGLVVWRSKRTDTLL
# Experimental: FIGURE 7. […] Reporter gene activity was determined following 24-h stimulation. All data are expressed as percentage of the maximum response observed in yeast strain MMY11 and are means ± S.E. of n individual data sets. D, Bar chart showing the efficacy of each ligand for each RAMP-CLR combination at the Gαq chimera determined via application of the operational model of receptor agonism (Ref. [34] and Table 1). Data were determined as statistically different from the cognate ligand for each receptor (***, p < 0.001; ****, p < 0.0001) using one-way ANOVA with Bonferroni's post-test. E, signaling bias plots were calculated as ΔΔ(τ/Ka) values on a logarithmic scale for each ligand and for each chimera G protein for the three individual RAMP-CLR complexes.
# General yeast procedures were performed as described previously ([22], [24]). […] Receptor signaling was measured using the yeast growth assay as described previously ([24]). […] A fluorescein signal was detected as an increase in fluorescence (excitation wavelength = 485 nm, emission wavelength = 535 nm) as a measure of growth. Different concentrations of ligand (0.01 nM–100 μM) were assayed using 96-well plates, and fluorescence was detected using a Tecan Infinite M200 microplate reader (Tecan Ultra Evolution, Reading, UK) or a Mithras LB 940 microplate reader (Berthold Technologies, Harpenden, UK) for 20 h. […]
# [3] = biological target: T1, RAMP1-CLR (CGRP receptor); assay: (Ca^2+)i mobilization, HEK-293S cells, RAMP1 + CLR; conditions: HEK293S, percentage of maximal (Ca^2+)i release with 10 μM ionomycin, mean ± S.E., n = 5
# Experimental: as §1, §2, §3
# T1 sequence (Q16602 23-461): as the sequence (Q16602 23-461) above
# T1 sequence (O60894 27-148): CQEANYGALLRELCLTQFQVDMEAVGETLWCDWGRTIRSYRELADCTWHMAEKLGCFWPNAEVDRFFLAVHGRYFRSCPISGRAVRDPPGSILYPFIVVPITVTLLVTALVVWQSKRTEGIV
smiles,measurement,setting,value
"CC[C@H](C)[C@H](NC(=O)[C@H](CCC(N)=O)NC(=O)[C@H](Cc1c[nH]cn1)NC(=O)[C@H](C)NC(=O)[C@H](CC(C)C)NC(=O)[C@H](CCCCN)NC(=O)[C@H](CCC(N)=O)NC(=O)[C@@H](NC(=O)[C@@H](NC(=O)[C@@H]1CSSC[C@H](NC(=O)CNC(=O)[C@H](Cc2ccccc2)NC(=O)[C@H](CO)NC(=O)[C@H](CCCNC(=N)N)NC(=O)[C@H](CC(C)C)NC(=O)CNC(=O)[C@H](CCC(N)=O)NC(=O)[C@H](Cc2ccccc2)NC(=O)[C@H](CC(N)=O)NC(=O)[C@H](CC(N)=O)NC(=O)[C@H](CCSC)NC(=O)[C@H](CO)NC(=O)[C@H](CCC(N)=O)NC(=O)[C@H](CCCNC(=N)N)NC(=O)[C@@H](N)Cc2ccc(O)cc2)C(=O)N[C@@H](CCCNC(=N)N)C(=O)N[C@@H](Cc2ccccc2)C(=O)NCC(=O)N[C@@H]([C@@H](C)O)C(=O)N1)[C@@H](C)O)C(C)C)C(=O)N[C@@H](Cc1ccc(O)cc1)C(=O)N[C@@H](CCC(N)=O)C(=O)N[C@@H](Cc1ccccc1)C(=O)N[C@H](C(=O)N[C@@H](CC(=O)O)C(=O)N[C@@H](CCCCN)C(=O)N[C@@H](CC(=O)O)C(=O)N[C@@H](CCCCN)C(=O)N[C@@H](CC(=O)O)C(=O)N[C@@H](CC(N)=O)C(=O)N[C@H](C(=O)N[C@@H](C)C(=O)N1CCC[C@H]1C(=O)N[C@@H](CCCNC(=N)N)C(=O)N[C@@H](CO)C(=O)N[C@@H](CCCCN)C(=O)N[C@H](C(=O)N[C@@H](CO)C(=O)N1CCC[C@H]1C(=O)N[C@@H](CCC(N)=O)C(=O)NCC(=O)N[C@@H](Cc1ccc(O)cc1)C(N)=O)[C@@H](C)CC)C(C)C)[C@@H](C)O [AM, adrenomedullin]",Emax,[1],37 ± 3.5%
same,Emax,[2],25.6 ± 2%
same,Emax,[3],38.2 ± 3.8%
